Where a SMILES comes first, the peptide text is derived from it. [ ]: non-standard residue; d: D form. d2Nal = N[C@H](Cc1ccc2ccccc2c1)C(=O)O
Test: Certificate of analysis GHRP-2: solubility
Type: physicochemical
Details: specification: soluble in water and 1% acetic acid at a concentration of ≧1 mg/ml to give a clear, colorless solution; batch 6P-20030403

C[C@H](NC(=O)[C@@H](Cc1ccc2ccccc2c1)NC(=O)[C@@H](C)N)C(=O)N[C@@H](Cc1c[nH]c2ccccc12)C(=O)N[C@H](Cc1ccccc1)C(=O)N[C@@H](CCCCN)C(N)=O [GHRP-2, D-Ala-D-Nal-Ala-Trp-D-Phe-Lys-NH2] (H-[dA][d2Nal]AW[dF]K-NH2)
Solubility: Complies

From US20070027079A1, “GHRP 2 strips” (priority 2005, published 2007)
